# Laboratory results taken from US10898475B2, “Bach1 inhibitors in combination with Nrf2 activators and pharmaceutical compositions thereof” (vTv Therapeutics LLC, priority 2014, dated 2021).
# Test system: HMOX1 in Normal Human Lung Fibroblasts (NHLF)
# Test: HMOX1 Protein Expression (immunostaining, fold induction or % positive cells over DMSO)
# Conditions: for Hill slope of DMF dose response curves in Table 2: % Positive HMOX
# Procedure: Normal Human Lung Fibroblasts (NHLF) obtained from Lonza were cultured in T-225 flasks using conditions recommended by the vendor (FGM-2 medium supplemented with 2% fetal bovine serum (FBS), fibroblast growth factor (hFGF-B) 0.5 mL, insulin 0.5 mL, and gentamicin/amphotericin-B 0.5 mL at 37° C. in a humidified atmosphere of 5% CO2).
# For assays, cell were thawed and placed into culture in T225 flasks, grown to be 80% confluent, and harvested as described by the vendor. NHLF cells (2.5×10^4 cells per well) were plated in 384 well optilux tissue culture (BD) plates and incubated overnight in media prior to exposure to compound. Cells were incubated with DMSO or various combinations of either an Nrf2 Activator (DMF (dimethyl fumarate)/CDDO-Me) or a Bach1 Inhibitor for 16-18 hr. Cells were then fixed and permeabilized prior to incubation with HMOX1 antibody (abcam; 1:300 dilution in 1% BSA in PBS) for 1 hour. Cells were then washed and incubated with a solution of fluorescently-coupled goat anti-mouse antibody (Alexa 488 1:400 dilution Invitrogen) and Hoechst nuclear stain (1:2000; Invitrogen) in PBS containing 1% BSA for 1 hr. Immunostaining was detected using a GE InCell 2000 instrument at the following wavelengths: Hoechst Ex/Em 360/535 and Alexa 488 Ex/Em 480/535. Results were analyzed using GE InCell Analyzer software and represented as the increase fold of HMOX1 induction (Fold induction/FI) or the percentage of HMOX1 positive (% positive) cells over DMSO.
compound,measurement,setting,value
"CN(C)C(=O)CNC(=O)c1ccc2c(c1)nc(Nc1nc3ccc(C(F)(F)F)cc3s1)n2C [HPP-C, 1-Methyl-2-(6-trifluoromethyl-benzothiazol-2-ylamino)-1H-benzimidazole-5-carboxylic acid dimethylcarbamoylmethyl-amide]",Hill slope of DMF dose response curves in Table 2,Bach1 Inhibitor Conc. 0.019 uM,2.00
same,Hill slope of DMF dose response curves in Table 2,Bach1 Inhibitor Conc. 0.039 uM,1.80
same,Hill slope of DMF dose response curves in Table 2,Bach1 Inhibitor Conc. 0.078 uM,1.79
same,Hill slope of DMF dose response curves in Table 2,Bach1 Inhibitor Conc. 0.156 uM,0.83
same,% Cells Positive HMOX,"Cpd. 0.019 uM, DMF 0 uM",3.60%
same,Fold Induction of HMOX,"Cpd. 0.019 uM, DMF 0 uM",1.29 fold
same,% Cells Positive HMOX,"Cpd. 0.019 uM, DMF 0.03 uM",1.18%
same,Fold Induction of HMOX,"Cpd. 0.019 uM, DMF 0.03 uM",1.10 fold
same,% Cells Positive HMOX,"Cpd. 0.019 uM, DMF 0.1 uM",2.37%
same,Fold Induction of HMOX,"Cpd. 0.019 uM, DMF 0.1 uM",1.15 fold
same,% Cells Positive HMOX,"Cpd. 0.019 uM, DMF 0.3 uM",6.49%
same,Fold Induction of HMOX,"Cpd. 0.019 uM, DMF 0.3 uM",1.24 fold
same,% Cells Positive HMOX,"Cpd. 0.019 uM, DMF 1 uM",10.18%
same,Fold Induction of HMOX,"Cpd. 0.019 uM, DMF 1 uM",1.68 fold
same,% Cells Positive HMOX,"Cpd. 0.019 uM, DMF 3 uM",51.54%
same,Fold Induction of HMOX,"Cpd. 0.019 uM, DMF 3 uM",2.86 fold
same,% Cells Positive HMOX,"Cpd. 0.019 uM, DMF 10 uM",94.22%
same,Fold Induction of HMOX,"Cpd. 0.019 uM, DMF 10 uM",5.75 fold
same,% Cells Positive HMOX,"Cpd. 0.019 uM, DMF 30 uM",84.20%
same,Fold Induction of HMOX,"Cpd. 0.019 uM, DMF 30 uM",4.65 fold
same,% Cells Positive HMOX,"Cpd. 0.039 uM, DMF 0 uM",2.31%
same,Fold Induction of HMOX,"Cpd. 0.039 uM, DMF 0 uM",1.37 fold
same,% Cells Positive HMOX,"Cpd. 0.039 uM, DMF 0.03 uM",5.74%
same,Fold Induction of HMOX,"Cpd. 0.039 uM, DMF 0.03 uM",1.28 fold
same,% Cells Positive HMOX,"Cpd. 0.039 uM, DMF 0.1 uM",6.82%
same,Fold Induction of HMOX,"Cpd. 0.039 uM, DMF 0.1 uM",1.35 fold
same,% Cells Positive HMOX,"Cpd. 0.039 uM, DMF 0.3 uM",12.76%
same,Fold Induction of HMOX,"Cpd. 0.039 uM, DMF 0.3 uM",1.61 fold
same,% Cells Positive HMOX,"Cpd. 0.039 uM, DMF 1 uM",23.54%
same,Fold Induction of HMOX,"Cpd. 0.039 uM, DMF 1 uM",2.10 fold
same,% Cells Positive HMOX,"Cpd. 0.039 uM, DMF 3 uM",68.03%
same,Fold Induction of HMOX,"Cpd. 0.039 uM, DMF 3 uM",3.01 fold
same,% Cells Positive HMOX,"Cpd. 0.039 uM, DMF 10 uM",94.66%
same,Fold Induction of HMOX,"Cpd. 0.039 uM, DMF 10 uM",5.13 fold
same,% Cells Positive HMOX,"Cpd. 0.039 uM, DMF 30 uM",90.40%
same,Fold Induction of HMOX,"Cpd. 0.039 uM, DMF 30 uM",4.90 fold
same,% Cells Positive HMOX,"Cpd. 0.078 uM, DMF 0 uM",7.12%
same,Fold Induction of HMOX,"Cpd. 0.078 uM, DMF 0 uM",1.59 fold
same,% Cells Positive HMOX,"Cpd. 0.078 uM, DMF 0.03 uM",5.99%
same,Fold Induction of HMOX,"Cpd. 0.078 uM, DMF 0.03 uM",1.37 fold
same,% Cells Positive HMOX,"Cpd. 0.078 uM, DMF 0.1 uM",8.24%
same,Fold Induction of HMOX,"Cpd. 0.078 uM, DMF 0.1 uM",1.48 fold
same,% Cells Positive HMOX,"Cpd. 0.078 uM, DMF 0.3 uM",16.20%
same,Fold Induction of HMOX,"Cpd. 0.078 uM, DMF 0.3 uM",1.73 fold
same,% Cells Positive HMOX,"Cpd. 0.078 uM, DMF 1 uM",37.74%
same,Fold Induction of HMOX,"Cpd. 0.078 uM, DMF 1 uM",2.53 fold
same,% Cells Positive HMOX,"Cpd. 0.078 uM, DMF 3 uM",81.81%
same,Fold Induction of HMOX,"Cpd. 0.078 uM, DMF 3 uM",4.33 fold
same,% Cells Positive HMOX,"Cpd. 0.078 uM, DMF 10 uM",97.16%
same,Fold Induction of HMOX,"Cpd. 0.078 uM, DMF 10 uM",6.46 fold
same,% Cells Positive HMOX,"Cpd. 0.078 uM, DMF 30 uM",96.15%
same,Fold Induction of HMOX,"Cpd. 0.078 uM, DMF 30 uM",6.18 fold
same,% Cells Positive HMOX,"Cpd. 0.156 uM, DMF 0 uM",28.56%
same,Fold Induction of HMOX,"Cpd. 0.156 uM, DMF 0 uM",2.66 fold
same,% Cells Positive HMOX,"Cpd. 0.156 uM, DMF 0.03 uM",22.08%
same,Fold Induction of HMOX,"Cpd. 0.156 uM, DMF 0.03 uM",1.99 fold
same,% Cells Positive HMOX,"Cpd. 0.156 uM, DMF 0.1 uM",33.12%
same,Fold Induction of HMOX,"Cpd. 0.156 uM, DMF 0.1 uM",2.54 fold
same,% Cells Positive HMOX,"Cpd. 0.156 uM, DMF 0.3 uM",49.95%
same,Fold Induction of HMOX,"Cpd. 0.156 uM, DMF 0.3 uM",3.06 fold
same,% Cells Positive HMOX,"Cpd. 0.156 uM, DMF 1 uM",66.67%
same,Fold Induction of HMOX,"Cpd. 0.156 uM, DMF 1 uM",4.08 fold
same,% Cells Positive HMOX,"Cpd. 0.156 uM, DMF 3 uM",88.98%
same,Fold Induction of HMOX,"Cpd. 0.156 uM, DMF 3 uM",4.57 fold
same,% Cells Positive HMOX,"Cpd. 0.156 uM, DMF 10 uM",100.00%
same,Fold Induction of HMOX,"Cpd. 0.156 uM, DMF 10 uM",6.55 fold
same,% Cells Positive HMOX,"Cpd. 0.156 uM, DMF 30 uM",84.03%
same,Fold Induction of HMOX,"Cpd. 0.156 uM, DMF 30 uM",5.49 fold
same,combination effect in terms of the % HMOX positive cells,combination with DMF at concentrations below their maximum effect (Table 2),additive or greater than additive
same,change of Hill slope of the DMF dose response curve (FIG. 5),upon increasing amounts of the Bach1 Inhibitor,reduced
